The source of these data is patent US20260365647A1, “AKT1 MODULATORS” (Alterome Therapeutics, Inc., priority 2022, published 2026).

The target of the assay is T1, AKT1-E17K (Homo sapiens, UniProt P31749, E17K).
T1 construct: host or cells: HEK-293 (ATCC CRL-1573)
T1 sequence (P31749 whole entry E17K): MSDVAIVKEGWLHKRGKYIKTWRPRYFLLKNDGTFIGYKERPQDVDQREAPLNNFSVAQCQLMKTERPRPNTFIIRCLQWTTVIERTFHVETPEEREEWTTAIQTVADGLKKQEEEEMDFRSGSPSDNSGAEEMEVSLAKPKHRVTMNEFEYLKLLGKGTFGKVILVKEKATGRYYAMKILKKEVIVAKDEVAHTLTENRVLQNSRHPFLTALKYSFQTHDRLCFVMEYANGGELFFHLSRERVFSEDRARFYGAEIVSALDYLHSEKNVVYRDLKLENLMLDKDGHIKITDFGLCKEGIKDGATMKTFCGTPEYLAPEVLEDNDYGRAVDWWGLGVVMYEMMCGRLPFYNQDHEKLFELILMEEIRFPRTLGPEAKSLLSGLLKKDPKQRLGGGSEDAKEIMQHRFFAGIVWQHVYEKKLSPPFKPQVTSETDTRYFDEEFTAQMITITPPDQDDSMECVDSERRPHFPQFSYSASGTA
Nature of the assay: NanoBRET Target Engagement (TE) Assay. Type of assay: cell-based. The method, boiled down:
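Live cells transiently expressing NanoLuc-AKT1 E17K fusion, incubated 2 h with tracer and compound before substrate plus extracellular NanoLuc inhibitor were added. BRET read at 450/600 nm; EC50 from variable-slope sigmoidal fit of tracer displacement.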
(In general: In BRET a luciferase serves as donor, and the signal depends on an acceptor being close.)
The molecule `CN(Cc1ccc(-n2c(-c3cccnc3N)nc3ccc(-c4ccccc4)nc32)cc1)c1ccc(C=O)c(O)c1` [Example 17, 4-((4-(2-(2-Aminopyridin-3-yl)-5-phenyl-3H-imidazo[4,5-b]pyridin-3-yl)benzyl)(methyl)amino)-2-hydroxybenzaldehyde] yielded an IC50 of 60 to 600 nM. `Nc1ncccc1-c1nc2ccc(-c3ccccc3Cl)nc2n1-c1ccc(CN2CCN(c3ccc(C=O)c(O)c3)CC2)cc1` [Example 145, 4-(4-(4-(2-(2-Aminopyridin-3-yl)-5-(2-chlorophenyl)-3H-imidazo[4,5-b]pyridin-3-yl)benzyl)piperazin-1-yl)-2-hydroxybenzaldehyde] gave a half-inhibitory concentration (IC50) of 60 to 600 nM. Then `Nc1ncccc1-c1nc2ccc(-c3ccccc3)nc2n1-c1ccc(CN2CCC3(CC2)CCN(c2ccc(C=O)c(O)c2)CC3)cc1` [Example 78, 4-(9-(4-(2-(2-Aminopyridin-3-yl)-5-phenyl-3H-imidazo[4,5-b]pyridin-3-yl)benzyl)-3,9-diazaspiro[5.5]undecan-3-yl)-2-hydroxybenzaldehyde], with 60 to 600 nM. Next, `Nc1ncccc1-c1nc2ccc(-c3ccccc3)nc2n1-c1ccc(CN2CC3(CC(NC(=O)c4ccc(C=O)c(O)c4)C3)C2)cc1` [Example 70, N-(2-(4-(2-(2-Aminopyridin-3-yl)-5-phenyl-3H-imidazo[4,5-b]pyridin-3-yl)benzyl)-2-azaspiro[3.3]heptan-6-yl)-4-formyl-3-hydroxybenzamide]: 60 to 600 nM.

Regarding `Nc1ncccc1-c1nc2ccc(-c3ccc(Cl)cc3)nc2n1-c1ccc(CN2CCN(c3ccc(O)c(C=O)c3)CC2)cc1` [Example 149, 5-(4-(4-(2-(2-aminopyridin-3-yl)-5-(4-chlorophenyl)-3H-imidazo[4,5-b]pyridin-3-yl)benzyl)piperazin-1-yl)-2-hydroxybenzaldehyde], the IC50 is above 600 nM. Next, `Nc1ncccc1-c1nc2ccc(-c3cccc(=O)[nH]3)nc2n1-c1ccc(CN2CCN(C(=O)c3ccc(C=O)c(O)c3)CC2)cc1` [Example 46, 4-(4-(4-(2-(2-Aminopyridin-3-yl)-5-(6-oxo-1,6-dihydropyridin-2-yl)-3H-imidazo[4,5-b]pyridin-3-yl)benzyl)piperazine-1-carbonyl)-2-hydroxybenzaldehyde]: above 600 nM. Next, `Nc1ncccc1-c1nc2ccc(-c3ccccc3)nc2n1-c1ccc(CN2CC[C@]3(CCN(C(=O)c4ccc(O)c(C=O)c4)C3)C2)cc1` [Example 101, (S)-5-(7-(4-(2-(2-Aminopyridin-3-yl)-5-phenyl-3H-imidazo[4,5-b]pyridin-3-yl)benzyl)-2,7-diazaspiro[4.4]nonane-2-carbonyl)-2-hydroxybenzaldehyde]: 60 to 600 nM; `Nc1ncccc1-c1nc2ccc(-c3ccccc3)nc2n1-c1ccc(CN2CCN(c3ccc(C=O)c(O)c3F)CC2)cc1` [Example 26, 4-(4-(4-(2-(2-Aminopyridin-3-yl)-5-phenyl-3H-imidazo[4,5-b]pyridin-3-yl)benzyl)piperazin-1-yl)-3-fluoro-2-hydroxybenzaldehyde]: 15 to 60 nM. Then `Nc1ncccc1-c1nc2ccc(-c3ccccc3)nc2n1-c1ccc(CN2CC3(CCN(c4ccc(C=O)c(O)c4)C3)C2)cc1` [Example 94, 4-(2-(4-(2-(2-Aminopyridin-3-yl)-5-phenyl-3H-imidazo[4,5-b]pyridin-3-yl)benzyl)-2,6-diazaspiro[3.4]octan-6-yl)-2-hydroxybenzaldehyde], with 15 to 60 nM; and `Nc1ncccc1-c1nc2ccc(-c3cccc(Cl)c3)nc2n1-c1ccc(CN2CCN(C(=O)c3ccc(O)c(C=O)c3)CC2)cc1` [Example 42, 5-(4-(4-(2-(2-Aminopyridin-3-yl)-5-(3-chlorophenyl)-3H-imidazo[4,5-b]pyridin-3-yl)benzyl)piperazine-1-carbonyl)-2-hydroxybenzaldehyde], with 60 to 600 nM; and `Nc1ncccc1-c1nc2ccc(-c3ccccc3)nc2n1-c1ccc(CN2CC[C@@H](NC(=O)c3ccc(C=O)c(O)c3)C2)cc1` [Example 64, (R)—N-(1-(4-(2-(2-Aminopyridin-3-yl)-5-phenyl-3H-imidazo[4,5-b]pyridin-3-yl)benzyl)pyrrolidin-3-yl)-4-formyl-3-hydroxybenzamide], with 60 to 600 nM. In turn, `Nc1ncccc1-c1nc2ccc(-c3ccccc3)nc2n1-c1ccc(CN2CCC(NC(=O)c3ccc(O)c(C=O)c3)CC2)cc1` [Example 7, N-(1-(4-(2-(2-Aminopyridin-3-yl)-5-phenyl-3H-imidazo[4,5-b]pyridin-3-yl)benzyl)piperidin-4-yl)-3-formyl-4-hydroxybenzamide] gave a 50% inhibitory concentration (IC50) below 15 nM. Next, `Nc1ncccc1-c1nc2ccc(-c3ccccc3)nc2n1-c1ccc(CN2CCCN(c3ccc(C=O)c(O)c3)CC2)cc1` [Example 120, 4-(4-(4-(2-(2-Aminopyridin-3-yl)-5-phenyl-3H-imidazo[4,5-b]pyridin-3-yl)benzyl)-1,4-diazepan-1-yl)-2-hydroxybenzaldehyde]: 15 to 60 nM; `Nc1ncccc1-c1nc2ccc(-c3ccccc3)nc2n1-c1ccc(CN2C[C@H]3C[C@@H]2CN3c2ccc(C=O)c(O)c2)cc1` [Example 124, 4-((1R,4R)-5-(4-(2-(2-Aminopyridin-3-yl)-5-phenyl-3H-imidazo[4,5-b]pyridin-3-yl)benzyl)-2,5-diazabicyclo[2.2.1]heptan-2-yl)-2-hydroxybenzaldehyde]: 15 to 60 nM. Then `Nc1ncccc1-c1nc2ccc(-c3ccccc3)nc2n1-c1ccc(CN2CCC3(CCN(C(=O)c4ccc(C=O)c(O)c4)C3)C2)cc1` (stereo not shown) [Example 81, 4-(7-(4-(2-(2-Aminopyridin-3-yl)-5-phenyl-3H-imidazo[4,5-b]pyridin-3-yl)benzyl)-2,7-diazaspiro[4.4]nonane-2-carbonyl)-2-hydroxybenzaldehyde], with 60 to 600 nM; and `Nc1ncccc1-c1nc2ccc(-c3ccccc3)nc2n1-c1ccc(CN2CCC3(CC2)CCN(c2ccc(C=O)c(O)c2)C3)cc1` [Example 76, 4-(8-(4-(2-(2-Aminopyridin-3-yl)-5-phenyl-3H-imidazo[4,5-b]pyridin-3-yl)benzyl)-2,8-diazaspiro[4.5]decan-2-yl)-2-hydroxybenzaldehyde], with 60 to 600 nM.

The molecule `Nc1ncccc1-c1nc2ccc(C3=CCCCC3)nc2n1-c1ccc(CN2CCN(C(=O)c3ccc(O)c(C=O)c3)CC2)cc1` [Example 150, 5-(4-(4-(2-(2-aminopyridin-3-yl)-5-(cyclohex-1-en-1-yl)-3H-imidazo[4,5-b]pyridin-3-yl)benzyl)piperazine-1-carbonyl)-2-hydroxybenzaldehyde] returned an IC50 of 60 to 600 nM. Then `Nc1ncccc1-c1nc2cccnc2n1-c1ccc(CNC(=O)c2ccc(C=O)c(O)c2)cc1` [Example 3, N-(4-(2-(2-Aminopyridin-3-yl)-3H-imidazo[4,5-b]pyridin-3-yl)benzyl)-4-formyl-3-hydroxybenzamide], with above 600 nM; and `Nc1ncccc1-c1nc2ccc(-c3ccccc3)nc2n1-c1ccc(CN2CCC3(CCCN(c4ccc(C=O)c(O)c4)C3)C2)cc1` (stereo not shown) [Example 88, 4-(2-(4-(2-(2-Aminopyridin-3-yl)-5-phenyl-3H-imidazo[4,5-b]pyridin-3-yl)benzyl)-2,7-diazaspiro[4.5]decan-7-yl)-2-hydroxybenzaldehyde], with 60 to 600 nM.

What is called IC50 is the concentration that inhibits the measured activity by half.
